Test results from ChEMBL document CHEMBL5512641, “Evaluation of novel 2-(quinoline-2-ylthio)acetamide derivatives linked to diphenyl-imidazole as α-glucosidase inhibitors: Insights from in silico, in vitro, and in vivo studies on their anti-diabetic properties” (Eur J Med Chem, 2024).
Active and inactive are the calls of the source. No cut-off for these calls is given here.

Tests used:
Alpha-glucosidase [1] = molecular target: T1, Alpha-glucosidase (Saccharomyces cerevisiae S288c, UniProt P53341+P38158+P07265); assay: Inhibition of Saccharomyces cerevisiae alpha-glucosidase using p-nitrophenyl-alpha-D-glucopyranoside as substrate measured after 20 mins by spectrophotometer; assay type: protein assay
Alpha-glucosidase [2] = molecular target: T1, Alpha-glucosidase; assay: Uncompetitive inhibition of Saccharomyces cerevisiae alpha-glucosidase using varying concentrations of p-nitrophenyl-alpha-D-glucopyranoside as substrate by Lineweaver-Burk plot analysis; assay type: protein assay
Rattus norvegicus [3] = assay: Antidiabetic activity in high fat diet/streptozotocin induced diabetic rat Wistar albino model assessed as reduction in blood glucose level at 50 mg/kg, po administered once daily and measured on day 14 using overnight fasted rat blood by automatic blood glucose meter; assay type: functional, organism-based; conditions: time 14.0 day
Rattus norvegicus [4] = assay: Antidiabetic activity in high fat diet/streptozotocin induced diabetic Wistar albino rat model assessed as reduction in blood glucose level at 50 mg/kg, po administered once daily and measured on day 28 using overnight fasted rat blood by automatic blood glucose meter; assay type: functional; conditions: time 28 day
Rattus norvegicus [5] = assay: Antidiabetic activity in high fat diet/streptozotocin induced diabetic Wistar albino rat model assessed as increase in body weight at 50 mg/kg, po administered once daily and measured for 28 days; assay type: functional, organism-based; conditions: time 28.0 day
Rattus norvegicus [6] = assay: Antidiabetic activity in 16 hrs fasted high fat diet/streptozotocin induced diabetic Wistar albino rat model assessed as reduction in blood glucose level at 50 mg/kg, po pretreated for 30 mins followed by glucose administration and measured after 30 to 120 mins by oral glucose tolerance test; assay type: functional, organism-based; conditions: time […]
Rattus norvegicus [7] = assay: Antidiabetic activity in high fat diet/streptozotocin induced diabetic Wistar albino rat model assessed as reduction in blood glucose level at 25 to 50 mg/kg, po administered once daily and measured on day 14 using overnight fasted rat blood by automatic blood glucose meter; assay type: functional, organism-based; conditions: dose 25-50 mg/kg, time 14.0 day
Rattus norvegicus [8] = assay: Antidiabetic activity in high fat diet/streptozotocin induced diabetic Wistar albino rat model assessed as reduction in blood glucose level at 10 to 50 mg/kg, po administered once daily and measured on day 7 using overnight fasted rat blood by automatic blood glucose meter; assay type: functional, organism-based; conditions: dose 10-50 mg/kg, time 7.0 day
Rattus norvegicus [9] = assay: Antidiabetic activity in high fat diet/streptozotocin induced diabetic Wistar albino rat model assessed as reduction in blood glucose level at 10 to 50 mg/kg, po administered once daily and measured immediately by automatic blood glucose meter; assay type: functional, organism-based; conditions: dose 10-50 mg/kg
Alpha-glucosidase [10] = molecular target: T1, Alpha-glucosidase; assay: Competitive inhibition of Saccharomyces cerevisiae alpha-glucosidase using varying concentrations of p-nitrophenyl-alpha-D-glucopyranoside as substrate by Lineweaver-Burk plot analysis; assay type: protein assay
[11] = Acute toxicity in male Wistar albino rat assessed as symptoms of toxicity at 250 to 1000 mg/kg, po administered via gastric gavage and measured daily for 72 hrs; assay type: organism-based; conditions: in vivo, dose 250-1000 mg/kg
[12] = Acute toxicity in male Wistar albino rat assessed as animal death at 250 to 1000 mg/kg, po administered via gastric gavage and measured daily for 72 hrs to 2 weeks; assay type: organism-based; conditions: in vivo, dose lower 250 mg/kg, time lower 3 day, dose upper 1000 mg/kg, time upper 14 day
[13] = Acute toxicity in male Wistar albino rat assessed as symptoms of diarrhea at 250 to 1000 mg/kg, po administered via gastric gavage and measured daily for 2 weeks; assay type: organism-based; conditions: in vivo, 336 h, dose 250-1000 mg/kg
[14] = Acute toxicity in male Wistar albino rat assessed as effect on sleeping at 250 to 1000 mg/kg, po administered via gastric gavage and measured daily for 2 weeks; assay type: organism-based; conditions: in vivo, 336 h, dose 250-1000 mg/kg
[15] = Acute toxicity in male Wistar albino rat assessed as convulsions at 250 to 1000 mg/kg, po administered via gastric gavage and measured daily for 2 weeks; assay type: organism-based; conditions: in vivo, 336 h, dose 250-1000 mg/kg
[16] = Acute toxicity in male Wistar albino rat assessed as lethargy at 250 to 1000 mg/kg, po administered via gastric gavage and measured daily for 2 weeks; assay type: organism-based; conditions: in vivo, 336 h, dose 250-1000 mg/kg
[17] = Acute toxicity in male Wistar albino rat assessed as tremors at 250 to 1000 mg/kg, po administered via gastric gavage and measured daily for 2 weeks; assay type: organism-based; conditions: in vivo, 336 h, dose 250-1000 mg/kg
[18] = Acute toxicity in male Wistar albino rat assessed as salivation at 250 to 1000 mg/kg, po administered via gastric gavage and measured daily for 2 weeks; assay type: organism-based; conditions: in vivo, 336 h, dose 250-1000 mg/kg
Rattus norvegicus [19] = assay: Antidiabetic activity in high fat diet/streptozotocin induced diabetic Wistar albino rat model assessed as reduction in blood glucose level at 50 mg/kg, po administered once daily and measured on day 21 using overnight fasted rat blood by automatic blood glucose meter; assay type: functional, organism-based; conditions: time 21.0 day
Rattus norvegicus [20] = assay: Antidiabetic activity in high fat diet/streptozotocin induced diabetic Wistar albino rat model assessed as reduction in blood glucose level at 10 mg/kg, po administered once daily and measured on day 28 using overnight fasted rat blood by automatic blood glucose meter; assay type: functional; conditions: time 28 day
Rattus norvegicus [21] = assay: Antidiabetic activity in high fat diet/streptozotocin induced diabetic Wistar albino rat model assessed as reduction in blood glucose level at 20 mg/kg, po administered once daily and measured on day 28 using overnight fasted rat blood by automatic blood glucose meter; assay type: functional; conditions: time 28 day
Rattus norvegicus [22] = assay: Antidiabetic activity in high fat diet/streptozotocin induced diabetic Wistar albino rat model assessed as increase in body weight at 10 to 50 mg/kg, po administered once daily and measured for 28 days; assay type: functional, organism-based; conditions: dose 10-50 mg/kg, time 28.0 day
Rattus norvegicus [23] = assay: Antidiabetic activity in 16 hrs fasted high fat diet/streptozotocin induced diabetic Wistar albino rat model assessed as reduction in blood glucose level at 10 to 50 mg/kg, po pretreated for 30 mins followed by glucose administration and measured immediately by oral glucose tolerance test; assay type: functional, organism-based; conditions: dose 10-50 mg/kg
Rattus norvegicus [24] = assay: Antidiabetic activity in 16 hrs fasted high fat diet/streptozotocin induced diabetic Wistar albino rat model assessed as reduction in blood glucose level at 25 to 50 mg/kg, po pretreated for 30 mins followed by glucose administration and measured after 30 mins by oral glucose tolerance test; assay type: functional, organism-based; conditions: dose 25-50 mg/kg, time 60.0 min
Rattus norvegicus [25] = assay: Antidiabetic activity in 16 hrs fasted high fat diet/streptozotocin induced diabetic Wistar albino rat model assessed as reduction in blood glucose level at 10 to 50 mg/kg, po pretreated for 30 mins followed by glucose administration and measured after 60 to 120 mins by oral glucose tolerance test; assay type: functional, organism-based; conditions: dose 10-50 mg/kg, time 30-150 min
Rattus norvegicus [26] = assay: Antidiabetic activity in high fat diet/streptozotocin induced diabetic Wistar albino rat model assessed as improvement in pancreatic islet architecture at 10 to 50 mg/kg, po administered once daily for 28 days by H and E staining based microscopic analysis; assay type: functional, organism-based; conditions: dose 10-50 mg/kg, time 28.0 day
Alpha-glucosidase [27] = molecular target: T1, Alpha-glucosidase; assay: Inhibition of Saccharomyces cerevisiae alpha-glucosidase using p-nitrophenyl-alpha-D-glucopyranoside as substrate preincubated for 10 mins followed by substrate addition and measured after 20 mins by spectrophotometer; assay type: protein assay
[28] = molecular target: Alpha-glucosidase (Saccharomyces cerevisiae S288c) (UniProt P53341+P38158+P07265); assay: Potency index, ratio of acarbose IC50 to test compound IC50 for inhibition of Saccharomyces cerevisiae alpha-glucosidase using p-nitrophenyl-alpha-D-glucopyranoside as substrate measured after 20 mins by spectrophotometer; assay type: protein assay

## O=C(CSc1nc2ccccc2cc1-c1nc(-c2ccccc2)c(-c2ccccc2)[nH]1)Nc1ccccc1Cl
Alpha-glucosidase [1]
  IC50: 1950 nM

## Cc1ccc(CNC(=O)CSc2nc3ccccc3cc2-c2nc(-c3ccccc3)c(-c3ccccc3)[nH]2)cc1
Alpha-glucosidase [1]
  IC50: 1480 nM

## Cc1cccc(NC(=O)CSc2nc3ccccc3cc2-c2nc(-c3ccccc3)c(-c3ccccc3)[nH]2)c1C
Alpha-glucosidase [1]
  IC50: 2050 nM

## Cc1cccc(C)c1NC(=O)CSc1nc2ccccc2cc1-c1nc(-c2ccccc2)c(-c2ccccc2)[nH]1
Alpha-glucosidase [1]
  IC50: 1250 nM
Alpha-glucosidase [2]
  Ki: 1000 nM

## O=C(CSc1nc2ccccc2cc1-c1nc(-c2ccccc2)c(-c2ccccc2)[nH]1)Nc1cccc(Cl)c1Cl
Alpha-glucosidase [1]
  IC50: 1580 nM

## O=C(CSc1nc2ccccc2cc1-c1nc(-c2ccccc2)c(-c2ccccc2)[nH]1)Nc1ccc(Cl)cc1
Alpha-glucosidase [1]
  IC50: 1800 nM

## C[C@H]1O[C@H](O[C@H]2[C@H](O)[C@@H](O)[C@@H](O[C@H]3[C@H](O)[C@@H](O)C(O)O[C@@H]3CO)O[C@@H]2CO)[C@H](O)[C@@H](O)[C@@H]1N[C@H]1C=C(CO)[C@@H](O)[C@H](O)[C@H]1O (stereo partly drawn) [ACARBOSE]
Rattus norvegicus [3]
  Activity: Active
Rattus norvegicus [4]
  Activity: 115 mg/dL
Rattus norvegicus [5]
  Activity: Active
Rattus norvegicus [6]
  Activity: Active

## CCc1ccc(NC(=O)CSc2nc3ccccc3cc2-c2nc(-c3ccccc3)c(-c3ccccc3)[nH]2)cc1
Alpha-glucosidase [1]
  IC50: 960 nM
Alpha-glucosidase [2]
  Ki: 770 nM

## O=C(CSc1nc2ccccc2cc1-c1nc(-c2ccccc2)c(-c2ccccc2)[nH]1)Nc1ccc(F)cc1
Rattus norvegicus [7]
  Activity: Active
Rattus norvegicus [8]
  Activity: inactive
Rattus norvegicus [9]
  Activity: inactive
Alpha-glucosidase [1]
  IC50: 180 nM
Alpha-glucosidase [10]
  Ki: 150 nM
[11]
  Activity: Non-Toxic
[12]
  Activity: Non-Toxic
[13]
  Activity: Non-Toxic
[14]
  Activity: Non-Toxic
[15]
  Activity: Non-Toxic
[16]
  Activity: Non-Toxic
[17]
  Activity: Non-Toxic
[18]
  Activity: Non-Toxic
Rattus norvegicus [19]
  Activity: Active
Rattus norvegicus [4]
  Activity: 127.83 mg/dL
Rattus norvegicus [20]
  Activity: 242 mg/dL
Rattus norvegicus [21]
  Activity: 207.83 mg/dL
Rattus norvegicus [22]
  Activity: Active
Rattus norvegicus [23]
  Activity: inactive
Rattus norvegicus [24]
  Activity: Active
Rattus norvegicus [25]
  Activity: Active
Rattus norvegicus [26]
  Activity: Active

## Clc1ccccc1Cn1cc(CSc2nc(-c3ccccc3)c(-c3ccccc3)[nH]2)nn1
Alpha-glucosidase [27]
  IC50: 85600 nM

## Cc1c(NC(=O)CSc2nc3ccccc3cc2-c2nc(-c3ccccc3)c(-c3ccccc3)[nH]2)cccc1[N+](=O)[O-]
Alpha-glucosidase [1]
  IC50: 1020 nM
Alpha-glucosidase [2]
  Ki: 990 nM

## O=C(CSc1nc2ccccc2cc1-c1nc(-c2ccccc2)c(-c2ccccc2)[nH]1)Nc1ccc(Br)cc1
Alpha-glucosidase [1]
  IC50: 1980 nM

## O=C(CSc1nc2ccccc2cc1-c1nc(-c2ccccc2)c(-c2ccccc2)[nH]1)NCc1ccccc1
Alpha-glucosidase [1]
  IC50: 1790 nM

## Cc1ccccc1NC(=O)CSc1nc2ccccc2cc1-c1nc(-c2ccccc2)c(-c2ccccc2)[nH]1
Alpha-glucosidase [1]
  IC50: 1500 nM

## O=C(CSc1nc2ccccc2cc1-c1nc(-c2ccccc2)c(-c2ccccc2)[nH]1)NCc1ccc(F)cc1
Alpha-glucosidase [1]
  IC50: 1260 nM
Alpha-glucosidase [10]
  Ki: 1400 nM

## O=C(CSc1nc2ccccc2cc1-c1nc(-c2ccccc2)c(-c2ccccc2)[nH]1)Nc1ccccc1F
Alpha-glucosidase [1]
  IC50: 2020 nM

## COc1ccc2nc3cc(Cl)ccc3c(SCC(=O)Nc3ccc(C)cc3)c2c1
Alpha-glucosidase [27]
  IC50: 80000 nM

## Cc1ccc(NC(=O)CSc2nc3ccccc3cc2-c2nc(-c3ccccc3)c(-c3ccccc3)[nH]2)cc1
Alpha-glucosidase [1]
  IC50: 1770 nM

## O=C(CSc1nc2ccccc2cc1-c1nc(-c2ccccc2)c(-c2ccccc2)[nH]1)Nc1cccc(Cl)c1
Alpha-glucosidase [1]
  IC50: 1850 nM

## O=C(CSc1nc2ccccc2cc1-c1nc(-c2ccccc2)c(-c2ccccc2)[nH]1)Nc1ccccc1
Alpha-glucosidase [1]
  IC50: 2100 nM
[28]
  Ratio IC50: 375

## O=C(CSc1nc2ccccc2cc1-c1nc(-c2ccccc2)c(-c2ccccc2)[nH]1)Nc1ccc2ccccc2c1
Alpha-glucosidase [1]
  IC50: 1220 nM
Alpha-glucosidase [10]
  Ki: 2200 nM

## Cc1cccc(C)c1NC(=O)CSc1nc2ccccc2cc1/C=N/NC(=O)c1ccccc1
Alpha-glucosidase [27]
  IC50: 14000 nM

## Cc1cc([N+](=O)[O-])ccc1NC(=O)CSc1nc2ccccc2cc1-c1nc(-c2ccccc2)c(-c2ccccc2)[nH]1
Alpha-glucosidase [1]
  IC50: 1530 nM
